Reference: US20250176599A1, “FLAVOR COMPOSITION AND FOOD AND BEVERAGE” (TAKASAGO INTERNATIONAL CORPORATION, priority 2021, published 2025)

Assays:
[1] = Overall conclusion of the sensory evaluation across aqueous solutions I to VI
How it was run: (§1)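 A sensory panel of eight scores each nootkatone-containing spiked water sample on two 0–4 scales. Off-flavor is relative, with the unmasked solution fixed at 4. Masker taste is absolute.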

[2] = Sensory evaluation of aqueous solution III containing 1-octen-3-one 1 ppb: off-flavor intensity and masking component intensity; conditions: average panel score
How it was run: as §1

[3] = Sensory evaluation of aqueous solution II containing (E)-2-octenal 10 ppb: off-flavor intensity and masking component intensity; conditions: average panel score
How it was run: as §1

[4] = Sensory evaluation of aqueous solution VI containing 1,5-octadien-3-ol 10 ppb: off-flavor intensity and masking component intensity; conditions: aqueous solution VI, average panel score
How it was run: as §1

[5] = Sensory evaluation of aqueous solution IV containing 1,5-octadien-3-one 100 ppt: off-flavor intensity and masking component intensity; conditions: aqueous solution IV, average panel score
How it was run: as §1

[6] = Sensory evaluation of aqueous solution V containing 1-octen-3-ol 10 ppb: off-flavor intensity and masking component intensity; conditions: average panel score
How it was run: as §1

[7] = Sensory evaluation of aqueous solution I containing (E)-2-nonenal 1 ppb: off-flavor intensity and masking component intensity; conditions: average panel score
How it was run: as §1

SMILES: CC1CCC(C(C)C)C(OCC(O)CO)C1 (centres unmarked) [3-menthoxypropan-1,2-diol]
- concentration that masks the off-flavor and does not affect the flavor of the food and/or beverage itself, lower limit [1]: ≥ 100 ppt
- concentration that masks the off-flavor and does not affect the flavor of the food and/or beverage itself, upper limit [1]: ≤ 100 ppm
- Masking Component Intensity ([2]; 1 ppb added): 0.5
- Off-Flavor Intensity ([2]; 1 ppb added): 3.3
- Masking Component Intensity ([2]; 1 ppm added): 1.5
- Off-Flavor Intensity ([2]; 1 ppm added): 2.5
- Masking Component Intensity ([2]; 10 ppb added): 0.6
- Off-Flavor Intensity ([2]; 10 ppb added): 2.9
- Masking Component Intensity ([2]; 10 ppm added): 2.1
- Off-Flavor Intensity ([2]; 10 ppm added): 2.3
- Masking Component Intensity ([2]; 50 ppm added): 3.0
- Off-Flavor Intensity ([2]; 50 ppm added): 1.9
- Masking Component Intensity ([2]; 100 ppb added): 1.1
- Off-Flavor Intensity ([2]; 100 ppb added): 2.8
- Masking Component Intensity ([2]; 100 ppm added): 3.8
- Off-Flavor Intensity ([2]; 100 ppm added): 1.6
- Masking Component Intensity ([2]; 100 ppt added): 0.1
- Off-Flavor Intensity ([2]; 100 ppt added): 3.3
- Masking Component Intensity ([3]; 1 ppb added): 0.4
- Off-Flavor Intensity ([3]; 1 ppb added): 3.0
- Masking Component Intensity ([3]; 1 ppm added): 1.4
- Off-Flavor Intensity ([3]; 1 ppm added): 2.3
- Masking Component Intensity ([3]; 10 ppb added): 0.5
- Off-Flavor Intensity ([3]; 10 ppb added): 3.0
- Masking Component Intensity ([3]; 10 ppm added): 2.0
- Off-Flavor Intensity ([3]; 10 ppm added): 1.8
- Masking Component Intensity ([3]; 50 ppm added): 3.1
- Off-Flavor Intensity ([3]; 50 ppm added): 1.5
- Masking Component Intensity ([3]; 100 ppb added): 1.0
- Off-Flavor Intensity ([3]; 100 ppb added): 2.8
- Masking Component Intensity ([3]; 100 ppm added): 4.0
- Off-Flavor Intensity ([3]; 100 ppm added): 1.1
- Masking Component Intensity ([3]; 100 ppt added): 0.4
- Off-Flavor Intensity ([3]; 100 ppt added): 3.1
- Masking Component Intensity ([4]; 1 ppb added): 0.1
- Off-Flavor Intensity ([4]; 1 ppb added): 3.0
- Masking Component Intensity ([4]; 1 ppm added): 0.8
- Off-Flavor Intensity ([4]; 1 ppm added): 2.6
- Masking Component Intensity ([4]; 10 ppb added): 0.4
- Off-Flavor Intensity ([4]; 10 ppb added): 3.0
- Masking Component Intensity ([4]; 10 ppm added): 2.0
- Off-Flavor Intensity ([4]; 10 ppm added): 2.3
- Masking Component Intensity ([4]; 50 ppm added): 2.9
- Off-Flavor Intensity ([4]; 50 ppm added): 1.9
- Masking Component Intensity ([4]; 100 ppb added): 0.4
- Off-Flavor Intensity ([4]; 100 ppb added): 3.0
- Masking Component Intensity ([4]; 100 ppm added): 3.5
- Off-Flavor Intensity ([4]; 100 ppm added): 1.3
- Masking Component Intensity ([4]; 100 ppt added): 0.0
- Off-Flavor Intensity ([4]; 100 ppt added): 3.0
- Masking Component Intensity ([5]; 1 ppb added): 0.0
- Off-Flavor Intensity ([5]; 1 ppb added): 3.8
- Masking Component Intensity ([5]; 1 ppm added): 1.0
- Off-Flavor Intensity ([5]; 1 ppm added): 3.3
- Masking Component Intensity ([5]; 10 ppb added): 0.1
- Off-Flavor Intensity ([5]; 10 ppb added): 3.5
- Masking Component Intensity ([5]; 10 ppm added): 1.5
- Off-Flavor Intensity ([5]; 10 ppm added): 2.9
- Masking Component Intensity ([5]; 50 ppm added): 2.4
- Off-Flavor Intensity ([5]; 50 ppm added): 2.5
- Masking Component Intensity ([5]; 100 ppb added): 0.9
- Off-Flavor Intensity ([5]; 100 ppb added): 3.5
- Masking Component Intensity ([5]; 100 ppm added): 3.0
- Off-Flavor Intensity ([5]; 100 ppm added): 2.1
- Masking Component Intensity ([5]; 100 ppt added): 0.0
- Off-Flavor Intensity ([5]; 100 ppt added): 3.9
- Masking Component Intensity ([6]; 1 ppb added): 0.3
- Off-Flavor Intensity ([6]; 1 ppb added): 3.1
- Masking Component Intensity ([6]; 1 ppm added): 1.4
- Off-Flavor Intensity ([6]; 1 ppm added): 2.6
- Masking Component Intensity ([6]; 10 ppb added): 0.6
- Off-Flavor Intensity ([6]; 10 ppb added): 2.6
- Masking Component Intensity ([6]; 10 ppm added): 2.1
- Off-Flavor Intensity ([6]; 10 ppm added): 2.0
- Masking Component Intensity ([6]; 50 ppm added): 2.0
- Off-Flavor Intensity ([6]; 50 ppm added): 1.6
- Masking Component Intensity ([6]; 100 ppb added): 1.0
- Off-Flavor Intensity ([6]; 100 ppb added): 2.5
- Masking Component Intensity ([6]; 100 ppm added): 3.8
- Off-Flavor Intensity ([6]; 100 ppm added): 1.4
- Masking Component Intensity ([6]; 100 ppt added): 0.3
- Off-Flavor Intensity ([6]; 100 ppt added): 3.3
- Masking Component Intensity ([7]; 1 ppb added): 0.3
- Off-Flavor Intensity ([7]; 1 ppb added): 3.4
- Masking Component Intensity ([7]; 1 ppm added): 1.1
- Off-Flavor Intensity ([7]; 1 ppm added): 2.9
- Masking Component Intensity ([7]; 10 ppb added): 0.6
- Off-Flavor Intensity ([7]; 10 ppb added): 3.1
- Masking Component Intensity ([7]; 10 ppm added): 1.9
- Off-Flavor Intensity ([7]; 10 ppm added): 2.6
- Masking Component Intensity ([7]; 50 ppm added): 2.5
- Off-Flavor Intensity ([7]; 50 ppm added): 1.9
- Masking Component Intensity ([7]; 100 ppb added): 0.8
- Off-Flavor Intensity ([7]; 100 ppb added): 3.1
- Masking Component Intensity ([7]; 100 ppm added): 3.3
- Off-Flavor Intensity ([7]; 100 ppm added): 1.8
- Masking Component Intensity ([7]; 100 ppt added): 0.3
- Off-Flavor Intensity ([7]; 100 ppt added): 3.4
